# Test results taken from ChEMBL document CHEMBL4177767, “Discovery of N2-(4-Amino-cyclohexyl)-9-cyclopentyl- N6-(4-morpholin-4-ylmethyl-phenyl)- 9H-purine-2,6-diamine as a Potent FLT3 Kinase Inhibitor for Acute Myeloid Leukemia with FLT3 Mutations” (J Med Chem, 2018).
# Activity calls are given as the source filed them. No cut-off for these calls is given here.
# How the values were obtained:
# MV4-11 [1] = assay: Cell cycle arrest in human MV4-11 cells assessed as accumulation at S phase at 1 nM after 24 hrs by propidium iodide staining-based flow cytometric method (reference value: 28.1%); assay type: functional
# MV4-11 [2] = assay: Cell cycle arrest in human MV4-11 cells assessed as accumulation at sub-G1 phase at 1 nM after 24 hrs by propidium iodide staining-based flow cytometric method (reference value: 9.2%); assay type: functional
# [3] = molecular target: Proto-oncogene tyrosine-protein kinase Src (Homo sapiens) (UniProt P12931); conditions: 10 nM
# Chain of Proto-oncogene tyrosine-protein kinase Src (Homo sapiens) (P12931 2-536 limits assumed): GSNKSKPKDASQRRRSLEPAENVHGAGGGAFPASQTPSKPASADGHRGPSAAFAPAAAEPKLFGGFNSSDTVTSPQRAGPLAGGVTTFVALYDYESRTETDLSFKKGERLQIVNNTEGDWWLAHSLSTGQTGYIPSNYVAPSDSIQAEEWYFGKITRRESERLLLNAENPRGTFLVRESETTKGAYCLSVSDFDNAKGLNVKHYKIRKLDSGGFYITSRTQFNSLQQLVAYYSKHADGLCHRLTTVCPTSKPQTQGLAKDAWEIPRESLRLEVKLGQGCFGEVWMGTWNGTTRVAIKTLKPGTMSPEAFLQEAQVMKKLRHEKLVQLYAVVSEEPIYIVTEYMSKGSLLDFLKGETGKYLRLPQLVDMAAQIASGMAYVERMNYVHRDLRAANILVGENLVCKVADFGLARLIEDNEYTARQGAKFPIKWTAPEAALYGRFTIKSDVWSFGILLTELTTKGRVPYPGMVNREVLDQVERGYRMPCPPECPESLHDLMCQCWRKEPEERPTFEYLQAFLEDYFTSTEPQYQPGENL
# Description: Inhibition of full length human N-terminal GST-tagged SRC expressed in baculovirus expression system at 10 nM relative to control
# [4] = molecular target: Receptor-type tyrosine-protein kinase FLT3 (Homo sapiens, UniProt P36888, ITD); assay: biochemical; assay type: cell-based, Sf9
# Description: Inhibition of N-terminal GST/His6-fused recombinant human FLT3 (R571 to S993 residues) ITD mutant expressed in Sf9 insect cells using poly (Ala,Glu,Lys,Tyr) 6:2:5:1 hydrobromide as substrate in presence of [gamma-33P]ATP
# MV4-11 [5] = assay: Cell cycle arrest in human MV4-11 cells assessed as accumulation at S phase at 100 nM after 24 hrs by propidium iodide staining-based flow cytometric method (reference value: 28.1%); assay type: functional
# [6] = molecular target: Macrophage colony-stimulating factor 1 receptor (Homo sapiens) (UniProt P07333); conditions: 10 nM
# Chain of Macrophage colony-stimulating factor 1 receptor (Homo sapiens) (P07333 whole entry): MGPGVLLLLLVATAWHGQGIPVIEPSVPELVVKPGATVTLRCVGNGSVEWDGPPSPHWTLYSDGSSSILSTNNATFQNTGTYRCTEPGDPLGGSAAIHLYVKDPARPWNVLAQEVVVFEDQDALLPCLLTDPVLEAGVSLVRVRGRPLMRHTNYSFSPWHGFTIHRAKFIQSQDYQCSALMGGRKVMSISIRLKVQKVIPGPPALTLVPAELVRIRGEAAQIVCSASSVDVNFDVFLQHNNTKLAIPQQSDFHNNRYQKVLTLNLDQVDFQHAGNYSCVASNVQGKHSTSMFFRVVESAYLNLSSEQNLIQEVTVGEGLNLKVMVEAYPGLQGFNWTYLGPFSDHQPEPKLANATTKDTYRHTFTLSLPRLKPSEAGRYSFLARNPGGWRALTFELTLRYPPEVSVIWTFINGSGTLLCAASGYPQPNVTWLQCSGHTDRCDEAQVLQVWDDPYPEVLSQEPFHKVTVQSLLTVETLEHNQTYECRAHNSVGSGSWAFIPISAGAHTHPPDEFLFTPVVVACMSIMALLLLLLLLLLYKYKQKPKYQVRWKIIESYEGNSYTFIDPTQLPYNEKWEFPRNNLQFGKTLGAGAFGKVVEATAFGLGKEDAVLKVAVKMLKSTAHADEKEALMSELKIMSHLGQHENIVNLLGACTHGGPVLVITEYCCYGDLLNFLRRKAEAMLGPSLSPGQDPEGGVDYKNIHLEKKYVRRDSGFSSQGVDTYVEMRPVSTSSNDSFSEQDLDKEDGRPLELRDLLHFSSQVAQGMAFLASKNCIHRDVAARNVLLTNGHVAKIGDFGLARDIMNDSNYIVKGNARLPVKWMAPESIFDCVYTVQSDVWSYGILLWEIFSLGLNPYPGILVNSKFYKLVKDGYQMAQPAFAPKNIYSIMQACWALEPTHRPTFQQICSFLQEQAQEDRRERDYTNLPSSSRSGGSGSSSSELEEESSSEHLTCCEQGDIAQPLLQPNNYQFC
# Description: Inhibition of human N-terminal GST-tagged FMS expressed in baculovirus expression system at 10 nM relative to control
# [7] = tested on: Receptor-type tyrosine-protein kinase FLT3 (Homo sapiens), P36888 [UNDEFINED MUTATION]; conditions: MV4-11, at 1 nM
# Description: Inhibition of FLT3 ITD mutant autophosphorylation at Y842 in human MV4-11 cells at 1 nM after 1 hr by immunoblot analysis
# [8] = molecular target: MAP kinase-interacting serine/threonine-protein kinase 2 (Homo sapiens) (UniProt Q9HBH9); conditions: 10 nM
# Chain of MAP kinase-interacting serine/threonine-protein kinase 2 (Homo sapiens) (Q9HBH9 whole entry, looked up): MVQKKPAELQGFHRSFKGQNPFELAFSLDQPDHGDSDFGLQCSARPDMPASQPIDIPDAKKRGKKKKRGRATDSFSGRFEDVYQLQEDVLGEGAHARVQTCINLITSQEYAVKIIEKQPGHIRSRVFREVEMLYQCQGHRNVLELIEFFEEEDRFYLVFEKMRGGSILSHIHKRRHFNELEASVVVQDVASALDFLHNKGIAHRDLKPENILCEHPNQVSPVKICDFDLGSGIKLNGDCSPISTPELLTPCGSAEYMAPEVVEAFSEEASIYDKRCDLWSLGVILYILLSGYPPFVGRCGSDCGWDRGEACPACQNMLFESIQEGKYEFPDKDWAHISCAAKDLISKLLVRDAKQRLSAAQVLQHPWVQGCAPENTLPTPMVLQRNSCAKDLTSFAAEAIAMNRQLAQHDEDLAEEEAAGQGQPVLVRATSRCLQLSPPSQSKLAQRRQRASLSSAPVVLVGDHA
# Description: Inhibition of full length human N-terminal GST-tagged MNK2 expressed in baculovirus expression system at 10 nM relative to control
# MCF7 = assay: cells; conditions: Homo sapiens, MCF7, 72 h
# [9] = molecular target: Receptor-type tyrosine-protein kinase FLT3 (Homo sapiens) (UniProt P36888); assay: Inhibition of human N-terminal GST-tagged FLT3 cytoplasmic domain expressed in baculovirus expression system at 10 nM
# Mus musculus = assay: In vivo inhibition of FLT3 ITD mutant in human MV4-11 cells xenografted in athymic nu/nu mouse assessed as decrease in STAT5 phosphorylation at Y694 at 10 mg/kg, ip after 24 hrs by immunoblot method relative to control; assay type: functional; conditions: MV4-11, ip
# MV4-11 [10] = assay: Cell cycle arrest in human MV4-11 cells assessed as accumulation at S phase at 0.01 nM after 24 hrs by propidium iodide staining-based flow cytometric method (reference value: 28.1%); assay type: functional
# THP-1 = assay: cells; conditions: Homo sapiens, THP-1, 72 h
# in vitro [11] = conditions: mouse, BA/F3 cells
# MV4-11 [12] = assay: Cell cycle arrest in human MV4-11 cells assessed as accumulation at sub-G1 phase at 100 nM after 24 hrs by propidium iodide staining-based flow cytometric method (reference value: 9.2%); assay type: functional
# [13] = tested on: Receptor-type tyrosine-protein kinase FLT3 (Homo sapiens), P36888 [UNDEFINED MUTATION]; conditions: MV4-11, at 0.01 to 100 nM
# Description: Inhibition of FLT3 ITD mutant in human MV4-11 cells assessed as decrease in MEK1/2 phosphorylation at S217/221 at 0.01 to 100 nM after 1 hr by immunoblot analysis
# K562 = assay: cells; conditions: Homo sapiens, K562, 72 h
# MV4-11 [14] = assay: Induction of apoptosis in human MV4-11 cells assessed as decrease in Mcl-1 levels at 10 to 100 nM after 24 hrs by immunoblot method; assay type: functional, cell-based
# MV4-11 [15] = assay: Growth inhibition of human MV4-11 cells after 72 hrs by calcein AM dye-based fluorescence assay; assay type: functional; conditions: MV4-11, 72 h
# MV4-11 [16] = assay: Cell cycle arrest in human MV4-11 cells assessed as accumulation at G2/M phase at 100 nM after 24 hrs by propidium iodide staining-based flow cytometric method (reference value: 15.9%); assay type: functional
# MV4-11 [17] = assay: Cell cycle arrest in human MV4-11 cells assessed as accumulation at sub-G1 phase at 10 nM after 24 hrs by propidium iodide staining-based flow cytometric method (reference value: 9.2%); assay type: functional
# MV4-11 [18] = assay: Cell cycle arrest in human MV4-11 cells assessed as accumulation at G2/M phase at 0.01 nM after 24 hrs by propidium iodide staining-based flow cytometric method (reference value: 15.9%); assay type: functional
# [19] = molecular target: Receptor-type tyrosine-protein kinase FLT3 (Homo sapiens, UniProt P36888, D835Y); assay: biochemical; assay type: cell-based, Sf9
# Description: Inhibition of N-terminal GST/His6-fused recombinant human FLT3 (R571 to S993 residues) D835Y mutant expressed in Sf9 insect cells using poly (Ala,Glu,Lys,Tyr) 6:2:5:1 hydrobromide as substrate in presence of [gamma-33P]ATP
# MV4-11 [20] = assay: Cell cycle arrest in human MV4-11 cells assessed as accumulation at S phase at 10 nM after 24 hrs by propidium iodide staining-based flow cytometric method (reference value: 28.1%); assay type: functional
# MV4-11 [21] = assay: Cell cycle arrest in human MV4-11 cells assessed as accumulation at sub-G1 phase at 0.1 nM after 24 hrs by propidium iodide staining-based flow cytometric method (reference value: 9.2%); assay type: functional
# [22] = molecular target: Calcium/calmodulin-dependent protein kinase type II subunit delta (Homo sapiens) (UniProt Q13557); conditions: 10 nM
# Chain of Calcium/calmodulin-dependent protein kinase type II subunit delta (Homo sapiens) (Q13557 whole entry): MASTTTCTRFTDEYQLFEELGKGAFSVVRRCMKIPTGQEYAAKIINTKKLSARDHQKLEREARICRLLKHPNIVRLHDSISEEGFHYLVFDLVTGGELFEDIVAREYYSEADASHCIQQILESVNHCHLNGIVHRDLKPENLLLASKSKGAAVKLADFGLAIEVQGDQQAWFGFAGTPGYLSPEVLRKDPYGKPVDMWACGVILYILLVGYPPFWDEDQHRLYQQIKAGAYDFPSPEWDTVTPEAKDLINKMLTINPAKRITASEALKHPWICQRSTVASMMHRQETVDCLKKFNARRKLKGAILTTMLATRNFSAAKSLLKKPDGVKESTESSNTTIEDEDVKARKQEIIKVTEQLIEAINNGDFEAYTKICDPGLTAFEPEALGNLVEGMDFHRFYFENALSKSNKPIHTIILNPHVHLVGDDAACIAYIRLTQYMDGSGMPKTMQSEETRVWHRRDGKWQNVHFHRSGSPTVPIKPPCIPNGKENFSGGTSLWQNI
# Description: Inhibition of full length human N-terminal GST-tagged CaMK2delta expressed in baculovirus expression system at 10 nM relative to control
# U-937 = assay: cells; conditions: Homo sapiens, U-937, 72 h
# Kasumi 1 = assay: cells; conditions: Homo sapiens, Kasumi 1, 72 h
# in vitro [23] = conditions: human, MRC5 cells
# [24] = tested on: Receptor-type tyrosine-protein kinase FLT3 (Homo sapiens), P36888 [UNDEFINED MUTATION]; conditions: MV4-11, at 0.01 to 100 nM; remark: listed apart in the source
# Description: Inhibition of FLT3 ITD mutant in human MV4-11 cells assessed as decrease in STAT5 phosphorylation at Y694 at 0.01 to 100 nM after 1 hr by immunoblot analysis
# in vitro [25] = conditions: human, BJ cells
# MV4-11 [26] = assay: Cell cycle arrest in human MV4-11 cells assessed as accumulation at G2/M phase at 1 nM after 24 hrs by propidium iodide staining-based flow cytometric method (reference value: 15.9%); assay type: functional
# Rattus norvegicus = assay: Toxicity in Wistar rat assessed as pathological macroscopic changes at 100 mg/kg, iv after 15 days; assay type: organism-based; conditions: in vivo, 360 h
# [27] = tested on: Receptor-type tyrosine-protein kinase FLT3 (Homo sapiens), P36888 [UNDEFINED MUTATION]; conditions: MV4-11, at 1 nM; remark: listed apart in the source
# Description: Inhibition of FLT3 ITD mutant autophosphorylation at Y589/591 in human MV4-11 cells at 1 nM after 1 hr by immunoblot analysis
# MV4-11 [28] = assay: Induction of apoptosis in human MV4-11 cells assessed as increase in caspase-3/7 activity using Ac-DEVD-AMC substrate after 24 hrs by fluorescence assay; assay type: functional, cell-based
# [29] = molecular target: Calcium/calmodulin-dependent protein kinase type II subunit gamma (Homo sapiens) (UniProt Q13555); conditions: 10 nM
# Chain of Calcium/calmodulin-dependent protein kinase type II subunit gamma (Homo sapiens) (Q13555 whole entry): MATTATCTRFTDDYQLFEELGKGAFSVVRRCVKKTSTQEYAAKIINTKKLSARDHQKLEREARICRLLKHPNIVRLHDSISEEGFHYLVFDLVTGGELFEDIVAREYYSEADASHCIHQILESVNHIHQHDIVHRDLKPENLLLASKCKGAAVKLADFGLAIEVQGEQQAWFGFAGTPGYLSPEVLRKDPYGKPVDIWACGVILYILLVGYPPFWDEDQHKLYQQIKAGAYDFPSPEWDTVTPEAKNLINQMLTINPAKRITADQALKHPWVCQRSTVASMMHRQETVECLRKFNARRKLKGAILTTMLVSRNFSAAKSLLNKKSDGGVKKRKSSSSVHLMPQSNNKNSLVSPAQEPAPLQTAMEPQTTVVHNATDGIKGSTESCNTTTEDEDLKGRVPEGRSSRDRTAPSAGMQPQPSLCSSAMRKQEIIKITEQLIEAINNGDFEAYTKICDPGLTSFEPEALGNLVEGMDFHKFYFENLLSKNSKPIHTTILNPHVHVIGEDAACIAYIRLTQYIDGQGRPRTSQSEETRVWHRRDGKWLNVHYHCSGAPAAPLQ
# Description: Inhibition of full length human N-terminal GST-tagged CAMK2gamma expressed in baculovirus expression system at 10 nM relative to control
# [30] = molecular target: High affinity nerve growth factor receptor (Homo sapiens) (UniProt P04629); conditions: 10 nM
# Chain of High affinity nerve growth factor receptor (Homo sapiens) (P04629 33-796 limits assumed): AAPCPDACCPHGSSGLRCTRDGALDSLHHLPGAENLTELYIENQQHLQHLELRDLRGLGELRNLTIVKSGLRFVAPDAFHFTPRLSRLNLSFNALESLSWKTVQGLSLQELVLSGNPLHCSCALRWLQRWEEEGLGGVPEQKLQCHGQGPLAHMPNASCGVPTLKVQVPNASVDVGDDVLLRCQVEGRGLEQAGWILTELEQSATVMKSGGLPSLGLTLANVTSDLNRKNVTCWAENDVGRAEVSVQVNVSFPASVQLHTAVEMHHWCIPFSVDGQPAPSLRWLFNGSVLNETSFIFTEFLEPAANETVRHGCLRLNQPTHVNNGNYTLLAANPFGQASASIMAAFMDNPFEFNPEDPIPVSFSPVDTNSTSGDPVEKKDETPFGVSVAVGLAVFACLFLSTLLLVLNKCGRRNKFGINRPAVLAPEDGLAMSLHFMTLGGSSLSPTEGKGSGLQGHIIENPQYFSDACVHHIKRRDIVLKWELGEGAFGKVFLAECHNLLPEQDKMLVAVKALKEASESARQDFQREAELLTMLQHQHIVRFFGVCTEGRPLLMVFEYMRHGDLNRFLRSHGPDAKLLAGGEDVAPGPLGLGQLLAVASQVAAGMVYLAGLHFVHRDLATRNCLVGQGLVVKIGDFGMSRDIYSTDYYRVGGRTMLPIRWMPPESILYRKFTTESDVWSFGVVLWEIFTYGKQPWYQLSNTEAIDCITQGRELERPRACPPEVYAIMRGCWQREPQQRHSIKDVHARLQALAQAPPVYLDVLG
# Description: Inhibition of human N-terminal GST-tagged TRK cytoplasmic domain expressed in baculovirus expression system at 10 nM relative to control
compound,measurement,setting,value
N[C@H]1CC[C@H](Nc2nc(Nc3ccc(CN4CCOCC4)cc3)c3ncn(C4CCCC4)c3n2)CC1,Activity,MV4-11 [1],8.6%
same,Activity,MV4-11 [2],20.4%
same,inhibition,[3],> 90%
same,IC50,[4],0.003 µM
same,Activity,MV4-11 [5],3.8%
same,inhibition,[6],> 90%
same,inhibition,[7],Active
same,inhibition,[8],> 90%
same,GI50,MCF7,0.197 µM
same,inhibition,[9],Active
same,inhibition in vivo at 10 mg/kg,Mus musculus,95%
same,Activity,MV4-11 [10],29.9%
same,GI50,THP-1,0.713 µM
same,GI50 at 72 h,in vitro [11],1.14 µM
same,Activity,MV4-11 [12],45.9%
same,inhibition,[13],Active
same,GI50,K562,0.38 µM
same,Activity,MV4-11 [14],Active
same,GI50,MV4-11 [15],0.002 µM
same,Activity,MV4-11 [16],1.2%
same,Activity,MV4-11 [17],42.9%
same,Activity,MV4-11 [18],14.5%
same,IC50,[19],0.008 µM
same,Activity,MV4-11 [20],2.7%
same,Activity,MV4-11 [21],11.8%
same,inhibition,[22],> 90%
same,GI50,U-937,0.664 µM
same,GI50,Kasumi 1,0.513 µM
same,GI50 at 72 h,in vitro [23],20.6 µM
same,inhibition,[24],Active
same,GI50 at 72 h,in vitro [25],12.7 µM
same,Activity,MV4-11 [26],1.1%
same,Activity,Rattus norvegicus,Non-Toxic
same,inhibition,[27],Active
same,Activity,MV4-11 [28],Active
same,inhibition,[29],> 90%
same,inhibition,[30],> 90%
